In PubChem BioAssay (NCI):
Where “and” joins values, the source holds several entries; their conditions need not be identical. Equal values may be shown once.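 Where inhibition never reached the appropriate level, the endpoint shown equals the highest concentration tested. Otherwise, values were interpolated linearly from a five-concentration, 48-hour dose response in 96-well plates. GI50 marks 50% less growth. TGI is the concentration that stops growth completely.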

Assays:
Assay in all cases: DTP human tumour cell line panel, 48 h
ACHN renal = test system: ACHN renal
COLO 205 colon = test system: COLO 205 colon
HCT-116 colon = test system: HCT-116 colon
HL-60(TB) leukemia = test system: HL-60(TB) leukemia
IGROV1 ovarian = test system: IGROV1 ovarian
NCI-H23 lung = test system: NCI-H23 lung
NCI-H460 lung = test system: NCI-H460 lung
SF-539 CNS = test system: SF-539 CNS
SK-MEL-5 melanoma = test system: SK-MEL-5 melanoma
U251 CNS = test system: U251 CNS

Compound	GI50 (ACHN renal)	TGI (ACHN renal)	GI50 (COLO 205 colon)	TGI (COLO 205 colon)	GI50 (HCT-116 colon)	TGI (HCT-116 colon)	GI50 (HL-60(TB) leukemia)	TGI (HL-60(TB) leukemia)	GI50 (IGROV1 ovarian)	TGI (IGROV1 ovarian)	GI50 (NCI-H23 lung)	TGI (NCI-H23 lung)	GI50 (NCI-H460 lung)	TGI (NCI-H460 lung)	GI50 (SF-539 CNS)	TGI (SF-539 CNS)	GI50 (SK-MEL-5 melanoma)	TGI (SK-MEL-5 melanoma)	GI50 (U251 CNS)	TGI (U251 CNS)
CC(=O)OC1CCC2(C)C(=CCC3C4CC(CN5CC5)C(=O)C4(C)CCC32)C1 (stereo not given)	4.17 µM	15.7 µM	3.71 µM	12 µM	3.44 µM	10.1 µM	4.12 µM	16.8 µM	4.23 µM	15.2 µM	14 µM	30 µM	12.2 µM	29.5 µM	13.5 µM	26.9 µM	12.7 µM	25.9 µM	13.6 µM	27.6 µM
Brc1ccc2c(c1)-c1ccccc1C1=NCCN12	0.519 µM	12.4 µM	0.652 µM	2.33 µM	0.403 µM	10.2 µM	2.45 µM	5.65 µM	1.61 µM	11.2 µM	1.8 µM	11.3 µM	0.399 µM	2.71 µM	1.63 µM	4.38 µM	1.52 µM	3.24 µM	1.24 µM	11.1 µM
NC1CC(n2ccc(=O)[nH]c2=O)OC1C(O)CO (stereo not given)	–	> 100 µM	–	> 100 µM	–	> 100 µM	–	> 100 µM	–	> 100 µM	–	> 100 µM	–	> 100 µM	–	> 100 µM	–	> 100 µM	–	> 100 µM
COC(=O)c1ccccc1NCc1cc(O)ccc1O	–	29.8 µM	–	34 µM	–	35.2 µM	–	> 42.8 µM	–	> 63.4 µM	–	> 68.5 µM	–	> 31.6 µM	–	34.9 µM	–	38.9 µM	–	40.1 µM
NC(=O)NC(=O)C1CCC(=O)N1S(=O)(=O)c1ccc(Cl)cc1 (stereo not given)	–	> 100 µM	–	> 100 µM	–	> 100 µM	–	> 100 µM	–	> 100 µM	–	> 100 µM	–	> 100 µM	–	> 100 µM	–	> 100 µM	–	> 100 µM
CCCNc1ncnc2c1cnn2C	–	> 100 µM	–	> 100 µM	–	> 100 µM	–	> 100 µM	–	> 100 µM	–	> 100 µM	–	> 100 µM	–	> 100 µM	–	> 100 µM	–	> 100 µM
Cc1c(N)nc(C2CC(=O)N2CC(N)C(N)=O)nc1C(=O)NC(C(=O)NC(C)C(O)C(C)C(=O)NC(C(=O)NCCc1nc(-c2nc(C(=O)NCCNCC(C)O)cs2)cs1)C(C)O)C(OC1OC(CO)C(O)C(O)C1OC1OC(CO)C(O)C(OC(N)=O)C1O)c1cnc[nH]1 (stereo not given)	0.135 µM	3.85 µM and 1.2 µM	33.6 µM	50 µM and 36.6 µM	6.97 µM	50 µM and 24.3 µM	24.4 µM	50 µM and > 37.4 µM	13.4 µM	50 µM and > 100 µM	1.06 µM	16.3 µM and 8.81 µM	0.208 µM	50 µM and 13.6 µM	0.0499 µM	1.32 µM and 0.255 µM	0.644 µM	11.6 µM and 17.9 µM	2.53 µM	50 µM and 24.2 µM
CC(=O)OCC1OC(OC(C)=O)C(NC#N)C(OC(C)=O)C1OC(C)=O (stereo not given)	–	> 100 µM	–	> 100 µM	–	> 100 µM	–	> 100 µM	–	> 100 µM	–	> 100 µM	–	> 100 µM	–	> 100 µM	–	> 100 µM	–	> 100 µM
COc1cc([C@H]2c3cc(O)c(OC)cc3C[C@]3(O)[C@@H]2CO[C@@H]3O)ccc1O	–	> 100 µM	–	> 100 µM	–	> 100 µM	–	> 100 µM	–	> 100 µM	–	> 100 µM	–	> 100 µM	–	> 100 µM	–	> 100 µM	–	> 100 µM
CCOC(=O)C1=C(O)c2c(OC)ccc(OC)c2C(=O)C1=O	–	> 100 µM	–	> 100 µM	–	> 100 µM	–	> 100 µM	–	> 100 µM	–	> 100 µM	–	> 100 µM	–	> 100 µM	–	> 100 µM	–	> 100 µM
Cc1cc2c(SCc3ccccc3Cl)nc(N)nc2nc1C	–	> 100 µM	–	> 100 µM	–	> 100 µM	–	> 100 µM	–	> 100 µM	–	> 100 µM	–	> 100 µM	–	> 100 µM	–	> 100 µM	–	> 100 µM
